Measurements from ChEMBL document CHEMBL5209581, “Membrane potential based assay for SLC6A5 using HEK-293 SLC6A5 OE cells” (2022).
pEC50: −log10 of the molar value.

Molecular target: T1, Sodium- and chloride-dependent glycine transporter 2 (Homo sapiens, UniProt Q9Y345)
T1 sequence (Q9Y345 whole entry): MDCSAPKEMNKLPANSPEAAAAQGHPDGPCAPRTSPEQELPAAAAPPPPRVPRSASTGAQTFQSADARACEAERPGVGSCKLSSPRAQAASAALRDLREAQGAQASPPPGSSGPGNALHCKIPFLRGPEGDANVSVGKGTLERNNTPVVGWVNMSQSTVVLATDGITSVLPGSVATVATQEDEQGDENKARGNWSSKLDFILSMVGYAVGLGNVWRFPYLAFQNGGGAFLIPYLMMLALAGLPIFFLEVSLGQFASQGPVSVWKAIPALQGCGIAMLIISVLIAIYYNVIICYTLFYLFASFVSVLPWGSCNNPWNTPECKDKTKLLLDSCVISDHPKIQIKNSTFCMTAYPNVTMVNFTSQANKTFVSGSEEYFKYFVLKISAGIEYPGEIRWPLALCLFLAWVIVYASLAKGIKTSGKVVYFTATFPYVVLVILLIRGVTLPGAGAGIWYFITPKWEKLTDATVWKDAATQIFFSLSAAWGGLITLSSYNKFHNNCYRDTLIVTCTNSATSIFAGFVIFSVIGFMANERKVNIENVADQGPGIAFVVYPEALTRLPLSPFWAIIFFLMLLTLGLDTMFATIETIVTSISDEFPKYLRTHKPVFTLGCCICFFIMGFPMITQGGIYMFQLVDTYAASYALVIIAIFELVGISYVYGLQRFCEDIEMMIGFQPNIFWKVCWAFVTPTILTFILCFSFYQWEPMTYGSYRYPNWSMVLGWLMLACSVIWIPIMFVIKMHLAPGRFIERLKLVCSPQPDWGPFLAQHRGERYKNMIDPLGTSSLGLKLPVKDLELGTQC
Description: Substrate uptake by the Glycine Transporter-2 (GlyT2, SLC6A5) as assessed by the fluorescent FLIPR membrane potential dye in HEK-293 JumpIN-SLC6A5 cells (PubChem AID: 1794825)

Work on NCC(=O)O [GLYCINE] yielded a pEC50 of 3.89.
